# Results as given in US20230017045A1, “PYRIDINE AND PYRIMIDINE CARBOXYLATE HERBICIDES AND METHODS OF USE THEREOF” (Dow AgroSciences LLC, priority 2017, published 2023).
# Test system: test plant species
# Test: Post-emergent herbicidal activity test (greenhouse, foliar spray, visual growth reduction)
# Assay type: in vivo
# Conditions: post-emergence, 336 h, ECHCG: barnyardgrass (Echinochloa crus-galli), 140 g ai/ha, 14 days after application, read-out: Visual Growth Reduction (%) 14 Days After Application, ECHCG
# Procedure: Post-emergent Test: Seeds or nutlets of the desired test plant species were planted in Sun Gro Metro-Mix® 360 planting mixture, which typically has a pH of 6.0 to 6.8 and an organic matter content of about 30 percent, in plastic pots with a surface area of 64 square centimeters. In some aspects, to ensure good germination and healthy plants, a fungicide treatment and/or other chemical or physical treatment was applied. The plants were grown for 7-21 d in a greenhouse with an approximate 15 h photoperiod which was maintained at 23-29° C. during the day and 22-28° C. during the night. Nutrients and water were added on a regular basis and supplemental lighting was provided with overhead metal halide 1000-Watt lamps as necessary. Plants were used for testing when they reached the first or second true leaf stage. A weighed amount, determined by the highest rate to be tested, of each test compound was placed in a 25 mL glass vial and was dissolved in 4 mL of a 97:3 v/v mixture of acetone and DMSO to obtain concentrated stock solutions. […] The concentrated stock solutions obtained were diluted with 20 mL of an aqueous mixture containing acetone, water, isopropyl alcohol, DMSO, […] crop oil concentrate, and X-77 surfactant in a 48.5:39:10:1.5:1.0:0.02 v/v ratio to obtain spray solutions containing the application rate. Compound requirements are based upon a 12 mL application volume at a rate of 187 liters per hectare (L/ha). Formulated compounds were applied to the plant material with an overhead Mandel track sprayer equipped with […] nozzles calibrated to deliver 187 L/ha over an application area of 0.64 square meters at a spray height of 18 inches (43 cm) above the average plant canopy height. Control plants were sprayed in the same manner with the solvent blank. The treated plants and control plants were placed in a greenhouse as described above and watered by subirrigation to prevent wash-off of the test compounds. After 14 d, the condition of the test plants as compared with that of the nontreated and control plants was determined visually and scored on a scale of 0 to 100 percent where 0 corresponds to no injury and 100 corresponds to complete control. In the reporting of the results, Table A: Percent Growth Reduction Conversion Table was used.
row,Compound,pest or weed control at 140 g/ha [%]
1,"COC(=O)c1nc(-c2ccc3c(c2)OC(F)(F)O3)c(F)cc1Cl [F258, Methyl 3-chloro-6-(2,2-difluorobenzo[d][1,3]dioxol-5-yl)-5-fluoropicolinate]",0 to 29
2,"COC(=O)c1nc(-c2cc(F)c(C(F)(F)F)cc2OC)ccc1Cl [F362, Methyl 3-chloro-6-(5-fluoro-2-methoxy-4-(trifluoromethyl)phenyl)picolinate]",0 to 29

# Same assay, conditions: post-emergence, 336 h, IPOHE: ivy-leaf morning glory (Ipomoea hederacea), 140 g ai/ha, 14 days after application, read-out: Visual Growth Reduction (%) 14 Days After Application, IPOHE
row,Compound,pest or weed control at 140 g/ha [%]
1,"COC(=O)c1nc(-c2ccc3c(c2)OC(F)(F)O3)c(F)cc1Cl [F258, Methyl 3-chloro-6-(2,2-difluorobenzo[d][1,3]dioxol-5-yl)-5-fluoropicolinate]",95 to 100
2,"COC(=O)c1nc(-c2cc(F)c(C(F)(F)F)cc2OC)ccc1Cl [F362, Methyl 3-chloro-6-(5-fluoro-2-methoxy-4-(trifluoromethyl)phenyl)picolinate]",95 to 100

# Same assay, conditions: post-emergence, 336 h, KCHSC: kochia (Bassia scoparia), 140 g ai/ha, 14 days after application, read-out: Visual Growth Reduction (%) 14 Days After Application, KCHSC
row,Compound,pest or weed control at 140 g/ha [%]
1,"COC(=O)c1nc(-c2ccc3c(c2)OC(F)(F)O3)c(F)cc1Cl [F258, Methyl 3-chloro-6-(2,2-difluorobenzo[d][1,3]dioxol-5-yl)-5-fluoropicolinate]",0 to 29
2,"COC(=O)c1nc(-c2cc(F)c(C(F)(F)F)cc2OC)ccc1Cl [F362, Methyl 3-chloro-6-(5-fluoro-2-methoxy-4-(trifluoromethyl)phenyl)picolinate]",30 to 44

# Same assay, conditions: post-emergence, 336 h, ORYSA: rice (Oryza sativa), 140 g ai/ha, 14 days after application, read-out: Visual Growth Reduction (%) 14 Days After Application, ORYSA
row,Compound,pest or weed control at 140 g/ha [%]
1,"COC(=O)c1nc(-c2ccc3c(c2)OC(F)(F)O3)c(F)cc1Cl [F258, Methyl 3-chloro-6-(2,2-difluorobenzo[d][1,3]dioxol-5-yl)-5-fluoropicolinate]",0 to 29
2,"COC(=O)c1nc(-c2cc(F)c(C(F)(F)F)cc2OC)ccc1Cl [F362, Methyl 3-chloro-6-(5-fluoro-2-methoxy-4-(trifluoromethyl)phenyl)picolinate]",0 to 29

# Same assay, conditions: post-emergence, 336 h, SETFA: giant foxtail (Setaria faberi), 140 g ai/ha, 14 days after application, read-out: Visual Growth Reduction (%) 14 Days After Application, SETFA
row,Compound,pest or weed control at 140 g/ha [%]
1,"COC(=O)c1nc(-c2ccc3c(c2)OC(F)(F)O3)c(F)cc1Cl [F258, Methyl 3-chloro-6-(2,2-difluorobenzo[d][1,3]dioxol-5-yl)-5-fluoropicolinate]",0 to 29
2,"COC(=O)c1nc(-c2cc(F)c(C(F)(F)F)cc2OC)ccc1Cl [F362, Methyl 3-chloro-6-(5-fluoro-2-methoxy-4-(trifluoromethyl)phenyl)picolinate]",60 to 74

# Same assay, conditions: post-emergence, 336 h, SORVU: grain sorghum (Sorghum vulgare), 140 g ai/ha, 14 days after application, read-out: Visual Growth Reduction (%) 14 Days After Application, SORVU
row,Compound,pest or weed control at 140 g/ha [%]
1,"COC(=O)c1nc(-c2ccc3c(c2)OC(F)(F)O3)c(F)cc1Cl [F258, Methyl 3-chloro-6-(2,2-difluorobenzo[d][1,3]dioxol-5-yl)-5-fluoropicolinate]",75 to 84
2,"COC(=O)c1nc(-c2cc(F)c(C(F)(F)F)cc2OC)ccc1Cl [F362, Methyl 3-chloro-6-(5-fluoro-2-methoxy-4-(trifluoromethyl)phenyl)picolinate]",85 to 94

# Same assay, conditions: post-emergence, 336 h, STEME: common chickweed (Stellaria media), 140 g ai/ha, 14 days after application, read-out: Visual Growth Reduction (%) 14 Days After Application, STEME
row,Compound,pest or weed control at 140 g/ha [%]
1,"COC(=O)c1nc(-c2ccc3c(c2)OC(F)(F)O3)c(F)cc1Cl [F258, Methyl 3-chloro-6-(2,2-difluorobenzo[d][1,3]dioxol-5-yl)-5-fluoropicolinate]",0 to 29
2,"COC(=O)c1nc(-c2cc(F)c(C(F)(F)F)cc2OC)ccc1Cl [F362, Methyl 3-chloro-6-(5-fluoro-2-methoxy-4-(trifluoromethyl)phenyl)picolinate]",0 to 29

# Same assay, conditions: post-emergence, 336 h, TRZAS: wheat, spring (Triticum aestivum), 140 g ai/ha, 14 days after application, read-out: Visual Growth Reduction (%) 14 Days After Application, TRZAS
row,Compound,pest or weed control at 140 g/ha [%]
1,"COC(=O)c1nc(-c2ccc3c(c2)OC(F)(F)O3)c(F)cc1Cl [F258, Methyl 3-chloro-6-(2,2-difluorobenzo[d][1,3]dioxol-5-yl)-5-fluoropicolinate]",0 to 29
2,"COC(=O)c1nc(-c2cc(F)c(C(F)(F)F)cc2OC)ccc1Cl [F362, Methyl 3-chloro-6-(5-fluoro-2-methoxy-4-(trifluoromethyl)phenyl)picolinate]",0 to 29

# Same assay, conditions: post-emergence, 336 h, blackgrass (Alopecurus myosuroides), 14 Days After Application, 140 g ai/ha, read-out: Visual Growth Reduction (%) ALOMY
row,Compound,pest or weed control at 140 g/ha [%]
1,"COC(=O)c1nc(-c2ccc3c(c2)OC(F)(F)O3)c(F)cc1Cl [F258, Methyl 3-chloro-6-(2,2-difluorobenzo[d][1,3]dioxol-5-yl)-5-fluoropicolinate]",0 to 29
2,"COC(=O)c1nc(-c2cc(F)c(C(F)(F)F)cc2OC)ccc1Cl [F362, Methyl 3-chloro-6-(5-fluoro-2-methoxy-4-(trifluoromethyl)phenyl)picolinate]",0 to 29

# Same assay, conditions: post-emergence, 336 h, canada thistle (Cirsium arvense), 14 Days After Application, 140 g ai/ha, read-out: Visual Growth Reduction (%) CIRAR
row,Compound,pest or weed control at 140 g/ha [%]
1,"COC(=O)c1nc(-c2ccc3c(c2)OC(F)(F)O3)c(F)cc1Cl [F258, Methyl 3-chloro-6-(2,2-difluorobenzo[d][1,3]dioxol-5-yl)-5-fluoropicolinate]",0 to 29
2,"COC(=O)c1nc(-c2cc(F)c(C(F)(F)F)cc2OC)ccc1Cl [F362, Methyl 3-chloro-6-(5-fluoro-2-methoxy-4-(trifluoromethyl)phenyl)picolinate]",0 to 29

# Same assay, conditions: post-emergence, 336 h, crabgrass (Digitaria sanguinalis), 14 Days After Application, 140 g ai/ha, read-out: Visual Growth Reduction (%) DIGSA
row,Compound,pest or weed control at 140 g/ha [%]
1,"COC(=O)c1nc(-c2ccc3c(c2)OC(F)(F)O3)c(F)cc1Cl [F258, Methyl 3-chloro-6-(2,2-difluorobenzo[d][1,3]dioxol-5-yl)-5-fluoropicolinate]",85 to 94
2,"COC(=O)c1nc(-c2cc(F)c(C(F)(F)F)cc2OC)ccc1Cl [F362, Methyl 3-chloro-6-(5-fluoro-2-methoxy-4-(trifluoromethyl)phenyl)picolinate]",45 to 59

# Same assay, conditions: post-emergence, 336 h, lambsquarters (Chenopodium album), 14 Days After Application, 140 g ai/ha, read-out: Visual Growth Reduction (%) CHEAL
row,Compound,pest or weed control at 140 g/ha [%]
1,"COC(=O)c1nc(-c2ccc3c(c2)OC(F)(F)O3)c(F)cc1Cl [F258, Methyl 3-chloro-6-(2,2-difluorobenzo[d][1,3]dioxol-5-yl)-5-fluoropicolinate]",75 to 84
2,"COC(=O)c1nc(-c2cc(F)c(C(F)(F)F)cc2OC)ccc1Cl [F362, Methyl 3-chloro-6-(5-fluoro-2-methoxy-4-(trifluoromethyl)phenyl)picolinate]",85 to 94

# Same assay, conditions: post-emergence, 336 h, redroot pigweed (Amaranthus retroflexus), 14 Days After Application, 140 g ai/ha, read-out: Visual Growth Reduction (%) AMARE
row,Compound,pest or weed control at 140 g/ha [%]
1,"COC(=O)c1nc(-c2ccc3c(c2)OC(F)(F)O3)c(F)cc1Cl [F258, Methyl 3-chloro-6-(2,2-difluorobenzo[d][1,3]dioxol-5-yl)-5-fluoropicolinate]",60 to 74
2,"COC(=O)c1nc(-c2cc(F)c(C(F)(F)F)cc2OC)ccc1Cl [F362, Methyl 3-chloro-6-(5-fluoro-2-methoxy-4-(trifluoromethyl)phenyl)picolinate]",95 to 100

# Same assay, conditions: post-emergence, 336 h, wild oat (Avena fatua), 14 Days After Application, 140 g ai/ha, read-out: Visual Growth Reduction (%) AVEFA
row,Compound,pest or weed control at 140 g/ha [%]
1,"COC(=O)c1nc(-c2ccc3c(c2)OC(F)(F)O3)c(F)cc1Cl [F258, Methyl 3-chloro-6-(2,2-difluorobenzo[d][1,3]dioxol-5-yl)-5-fluoropicolinate]",0 to 29
2,"COC(=O)c1nc(-c2cc(F)c(C(F)(F)F)cc2OC)ccc1Cl [F362, Methyl 3-chloro-6-(5-fluoro-2-methoxy-4-(trifluoromethyl)phenyl)picolinate]",0 to 29

# Same assay, conditions: post-emergence, 336 h, yellow nutsedge (Cyperus esculentus), 14 Days After Application, 140 g ai/ha, read-out: Visual Growth Reduction (%) CYPES
row,Compound,pest or weed control at 140 g/ha [%]
1,"COC(=O)c1nc(-c2ccc3c(c2)OC(F)(F)O3)c(F)cc1Cl [F258, Methyl 3-chloro-6-(2,2-difluorobenzo[d][1,3]dioxol-5-yl)-5-fluoropicolinate]",30 to 44
2,"COC(=O)c1nc(-c2cc(F)c(C(F)(F)F)cc2OC)ccc1Cl [F362, Methyl 3-chloro-6-(5-fluoro-2-methoxy-4-(trifluoromethyl)phenyl)picolinate]",0 to 29
